Data on 24 molecules can be found in patent publication US20250114338A1, “TETRAHYDRO-PYRIDO[3,4-b]INDOLE ESTROGEN RECEPTOR MODULATORS AND USES THEREOF” (Genentech, Inc., priority 2014, published 2025).

For this test, the system named is ER-alpha MCF7. The test can be described thus: ER-alpha MCF7 HCS EC50; stated as measured by in vitro cell proliferation assays of Examples 902 and 903. The settings on record: Homo sapiens, MCF7, MCF7 cells; Table 2. Type of test: cell-based. A digest of the protocol:
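MCF7 cells seeded 1000-2000 cells/well for 16 h, then treated with nine-point 1:2 DMSO dilution series in quadruplicate at 37 °C, 5% CO2 for 4 days. Viable cells quantified by CellTiter-Glo ATP luminescence; EC50 calculated. Controls: fulvestrant at final 100 nM, DMSO 0.2% v/v.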
Broadly, the EC50 is the concentration giving half of the maximal effect. On to `C[C@@H]1Cc2c([nH]c3ccccc23)[C@@H](c2c(F)cc(/C=C/CN3CC(CF)C3)cc2F)N1CC(C)(C)F` [Example 144, (1R,3R)-1-[2,6-difluoro-4-[(E)-3-[3-(fluoromethyl)azetidin-1-yl]prop-1-enyl]phenyl]-2-(2-fluoro-2-methyl-propyl)-3-methyl-1,3,4,9-tetrahydropyrido[3,4-b]indole], for which the EC50 was 144 pM.
As to `C[C@@H]1Cc2c([nH]c3ccccc23)[C@@H](c2c(F)cc(OCCN3CC(CF)C3)cc2F)N1C[C@](C)(O)CO` [Example 271, (S)-3-((1R,3R)-1-(2,6-difluoro-4-(2-(3-(fluoromethyl)azetidin-1-yl)ethoxy)phenyl)-3-methyl-1,3,4,9-tetrahydro-2H-pyrido[3,4-b]indol-2-yl)-2-methylpropane-1,2-diol], the EC50 was found to be 5000 pM.
Under `C[C@@H]1Cc2c([nH]c3cccc(F)c23)[C@@H](c2c(F)cc(NC3CN(CCCF)C3)cc2F)N1CC(F)(F)CO` [Example 416, 3-((1R,3R)-1-(2,6-difluoro-4-((1-(3-fluoropropyl)azetidin-3-yl)amino)phenyl)-5-fluoro-3-methyl-3,4-dihydro-1H-pyrido[3,4-b]indol-2(9H)-yl)-2,2-difluoropropan-1-ol] stands 24 pM; under `C[C@H]1Cc2c([nH]c3ccc(F)cc23)[C@H](c2c(F)cc(OCCN3CC(CF)C3)cc2F)N1CC(F)F` [Example 384, (1S,3S)-1-(2,6-difluoro-4-(2-(3-(fluoromethyl)azetidin-1-yl)ethoxy)phenyl)-2-(2,2-difluoroethyl)-6-fluoro-3-methyl-2,3,4,9-tetrahydro-1H-pyrido[3,4-b]indole], 29000 pM; under `C[C@@H]1Cc2c([nH]c3ccccc23)[C@@H](c2c(F)cc(OC3CN(CC4CCCC4)C3)cc2F)N1CC(C)(C)F` [Example 165, (1R,3R)-1-[4-[1-(cyclopentylmethyl)azetidin-3-yl]oxy-2,6-difluoro-phenyl]-2-(2-fluoro-2-methyl-propyl)-3-methyl-1,3,4,9-tetrahydropyrido[3,4-b]indole], 2000 pM.
For `C[C@@H]1Cc2c([nH]c3ccccc23)[C@@H](c2c(F)cc(OC3CN(C[C@@H]4C[C@H]4F)C3)cc2F)N1CC(C)(C)F` [Example 269, (1R,3R)-1-[2,6-difluoro-4-[1-[[(1S,2R)-2-fluorocyclopropyl]methyl]azetidin-3-yl]oxy-phenyl]-2-(2-fluoro-2-methyl-propyl)-3-methyl-1,3,4,9-tetrahydropyrido[3,4-b]indole], the EC50 was found to be 1000 pM.
On to `C[C@@H]1Cc2c([nH]c3ccccc23)[C@H](c2c(F)cc(OCCN3CC(CF)C3)cc2F)N1CC(C)(C)C(=O)O` [Example 378, 3-[(1S,3R)-1-[2,6-difluoro-4-[2-[3-(fluoromethyl)azetidin-1-yl]ethoxy]phenyl]-3-methyl-1,3,4,9-tetrahydropyrido[3,4-b]indol-2-yl]-2,2-dimethyl-propanoic acid], for which the half-maximal effective concentration (EC50) was determined as 28000 pM.
In the case of `C[C@@H]1Cc2c([nH]c3ccccc23)[C@@H](c2ccn(CCCN3CC(CF)C3)c(=O)c2)N1CC(C)(C)F` [Example 345, 4-((1R,3R)-2-(2-fluoro-2-methylpropyl)-3-methyl-2,3,4,9-tetrahydro-1H-pyrido[3,4-b]indol-1-yl)-1-(3-(3-(fluoromethyl)azetidin-1-yl)propyl)pyridin-2(1H)-one], the half-maximal effective concentration (EC50) was found to be 12300 pM.
Turning to `C[C@H]1Cc2c([nH]c3c(F)cccc23)[C@H](c2c(F)cc(OCCN3CC(CF)C3)cc2F)N1CC(C)(C)F` [Example 262, (1S,3S)-1-(2,6-difluoro-4-(2-(3-(fluoromethyl)azetidin-1-yl)ethoxy)phenyl)-8-fluoro-2-(2-fluoro-2-methylpropyl)-3-methyl-2,3,4,9-tetrahydro-1H-pyrido[3,4-b]indole], the EC50 was determined as 26000 pM.
For the molecule `C[C@@H]1Cc2c([nH]c3ccc(F)cc23)[C@@H](c2c(F)cc(OCCN3CC(CF)C3)cc2F)N1CC(F)(F)F` [Example 356, (1R,3R)-1-(2,6-difluoro-4-(2-(3-(fluoromethyl)azetidin-1-yl)ethoxy)phenyl)-6-fluoro-3-methyl-2-(2,2,2-trifluoroethyl)-2,3,4,9-tetrahydro-1H-pyrido[3,4-b]indole], the concentration for a half-maximal effect (EC50) was 509 pM.
Then `C[C@H](CN1[C@H](c2c(F)cc(OCCN3CC(CF)C3)cc2F)c2[nH]c3ccccc3c2C[C@H]1C)C(=O)N(C)C` [Example 298, (R)-3-((1R,3R)-1-(2,6-difluoro-4-(2-(3-(fluoromethyl)azetidin-1-yl)ethoxy)phenyl)-3-methyl-1,3,4,9-tetrahydro-2H-pyrido[3,4-b]indol-2-yl)-N,N,2-trimethylpropanamide], with 5000 pM; and `C[C@@H]1Cc2c([nH]c3ccccc23)[C@@H](c2ccc(OC3CN(CCCF)C3)c(F)c2)N1CC(C)(C)F` [Example 267, (1R,3R)-1-[3-fluoro-4-[1-(3-fluoropropyl)azetidin-3-yl]oxy-phenyl]-2-(2-fluoro-2-methyl-propyl)-3-methyl-1,3,4,9-tetrahydropyrido[3,4-b]indole], with 744 pM; and `C[C@@H]1Cc2c([nH]c3cc(F)ccc23)[C@@H](c2c(F)cc(OC3CN(CCCF)C3)cc2F)N1CC(C)(C)F` [Example 248, (1R,3R)-1-(2,6-difluoro-4-((1-(3-fluoropropyl)azetidin-3-yl)oxy)phenyl)-7-fluoro-2-(2-fluoro-2-methylpropyl)-3-methyl-2,3,4,9-tetrahydro-1H-pyrido[3,4-b]indole], with 518 pM.
Regarding `C[C@@H]1Cc2c([nH]c3ccccc23)[C@@H](c2c(F)cc(NCCN3CC(CF)C3)cc2F)N1CC(C)(C)F` [Example 321, 3,5-difluoro-N-[2-[3-(fluoromethyl)azetidin-1-yl]ethyl]-4-[(1R,3R)-2-(2-fluoro-2-methyl-propyl)-3-methyl-1,3,4,9-tetrahydropyrido[3,4-b]indol-1-yl]aniline], the EC50 was determined as 222 pM.
`C[C@@H]1Cc2c([nH]c3ccccc23)[C@@H](c2c(F)cc(OC3CN(CC4CC4)C3)cc2F)N1CC(C)(C)F` [Example 164, (1R,3R)-1-[4-[1-(cyclopropylmethyl)azetidin-3-yl]oxy-2,6-difluoro-phenyl]-2-(2-fluoro-2-methyl-propyl)-3-methyl-1,3,4,9-tetrahydropyrido[3,4-b]indole]: the EC50 was determined as 216 pM.
As to `C[C@@H]1Cc2c([nH]c3ccc(F)cc23)[C@@H](c2c(F)cc(OC3CN(CCCF)C3)cc2F)N1CC(C)(C)F` [Example 242, (1R,3R)-1-(2,6-difluoro-4-((1-(3-fluoropropyl)azetidin-3-yl)oxy)phenyl)-6-fluoro-2-(2-fluoro-2-methylpropyl)-3-methyl-2,3,4,9-tetrahydro-1H-pyrido[3,4-b]indole], the concentration for a half-maximal effect (EC50) turned out to be 5420 pM.
For the molecule `C[C@@H]1Cc2c([nH]c3ccccc23)[C@@H](c2ccc(NC3CN(CCCF)C3)cc2)N1S(C)(=O)=O` [Example 310, 1-(3-fluoropropyl)-N-[4-[(1R,3R)-3-methyl-2-methylsulfonyl-1,3,4,9-tetrahydropyrido[3,4-b]indol-1-yl]phenyl]azetidin-3-amine], the EC50 is 708 pM.
For `C[C@@H]1Cc2c([nH]c3ccccc23)[C@@H](c2c(F)cc(NC3CN(CCCF)C3)cc2F)N1CC(C)(C)C(=O)O` [Example 382, 3-((1R,3R)-1-(2,6-difluoro-4-((1-(3-fluoropropyl)azetidin-3-yl)amino)phenyl)-3-methyl-1,3,4,9-tetrahydro-2H-pyrido[3,4-b]indol-2-yl)-2,2-dimethylpropanoic acid], the EC50 was determined as 1010 pM.
As for `C[C@@H]1Cc2c([nH]c3ccccc23)[C@@H](c2c(F)cc(OC3CN(C)C3)cc2F)N1CC(C)(C)F` [Example 161, (1R,3R)-1-[2,6-difluoro-4-(1-methylazetidin-3-yl)oxy-phenyl]-2-(2-fluoro-2-methyl-propyl)-3-methyl-1,3,4,9-tetrahydropyrido[3,4-b]indole], the EC50 was determined as 41.3 pM.
Under `C[C@@H]1Cc2c([nH]c3ccccc23)[C@@H](c2c(F)cc(NC3CN(CCCF)C3)cc2F)N1C[C@](F)(C#N)CO` [Example 419, (S)-3-((1R,3R)-1-(2,6-difluoro-4-((1-(3-fluoropropyl)azetidin-3-yl)amino)phenyl)-3-methyl-3,4-dihydro-1H-pyrido[3,4-b]indol-2(9H)-yl)-2-fluoro-2-(hydroxymethyl) propanenitrile] stands 26 pM.
`C[C@@H]1Cc2c([nH]c3ccccc23)[C@H](c2ccc(OCCN3CC(CF)C3)cc2)N1S(C)(=O)=O` [Example 179, (1S,3R)-1-[4-[2-[3-(fluoromethyl)azetidin-1-yl]ethoxy]phenyl]-3-methyl-2-methylsulfonyl-1,3,4,9-tetrahydropyrido[3,4-b]indole]: the EC50 was 13000 pM.
Under `C[C@@H]1Cc2c([nH]c3ccccc23)[C@@H](c2c(F)cc(OC3CN(CCCF)C3)cc2F)N1CC1(CO)CC1` [Example 228, [1-[[(1R,3R)-1-[2,6-difluoro-4-[1-(3-fluoropropyl)azetidin-3-yl]oxy-phenyl]-3-methyl-1,3,4,9-tetrahydropyrido[3,4-b]indol-2-yl]methyl]cyclopropyl] methanol] stands 1000 pM.
`C[C@@H]1Cc2c([nH]c3ccccc23)[C@@H](c2ccc(OCCN3CC(CF)C3)c(F)c2)N1CC(C)(C)F` [Example 279, (1R,3R)-2-(2-fluoro-2-methylpropyl)-1-(3-fluoro-4-(2-(3-(fluoromethyl)azetidin-1-yl)ethoxy)phenyl)-3-methyl-2,3,4,9-tetrahydro-1H-pyrido[3,4-b]indole]: the EC50 is 160 pM.
In the case of `C[C@@H]1Cc2c([nH]c3ccccc23)[C@@H](c2c(F)cc(OCCCN3CC(CF)C3)cc2F)N1CC(C)(C)F` [Example 143, (1R,3R)-1-[2,6-difluoro-4-[3-[3-(fluoromethyl)azetidin-1-yl]propoxy]phenyl]-2-(2-fluoro-2-methyl-propyl)-3-methyl-1,3,4,9-tetrahydropyrido[3,4-b]indole], the EC50 is 78 pM.
